The source of these data is patent US4801588A, “Tetracyclic indole derivatives for treating hypertension” (Farmitalia Carlo Erba S.p.A., priority 1986, dated 1989).

The LD50 is the dose expected to kill half of the subjects tested.

Data set [1] relates to mean blood pressure. Kind of data set: Antihypertensive activity: mean blood pressure (MBP) after oral administration in SHR rats, intraarterial measurement. The class given is in vivo, rat (SHR). Conditions: single dose, limits P = 0.05, calculated from dose-response regression line; for ED25 and limits (dose lowering mean blood pressure of 25 mmHg): p.o. The method, then:
Intrarterial measurements of mean blood pressure (MBP) were performed through catheters (PE 50, Clay Adams) implanted in the rat (SHR) right carotid artery under alothane anesthesia. Twenty four hours after surgery, the animals were placed in Ballman cages and the arterial cannula was connected via a pressure transducer to a Beckman blood pressure recorder for continuous monitoring of mean blood pressure.
MBP was recorded before the oral administration (basal values) and 15-30-60-120-240 minutes till 24 hours after treatment. Groups of 7-8 rats were orally treated with a single dose of the test compound or vehicle, methocel 0.5% w/v (0.2 ml/100 g b.w.). The ED25 was calculated for each compound from the dose-response regression line.
As reference standard drug, captopril was also tested.

The test system of data set [2] is male mice. Briefly: Orientative toxicity after oral treatment in male mice, seven days observation. The class given is in vivo. Particulars: p.o., observed for seven days, 10080 min. The source says:
(§1) Three male mice for each group were orally treated with drugs at different dose levels for the determination of orientative toxicity.

Assay in data set [3]: as above
The class given is in vivo. Particulars: mouse, in vivo, po, observed for seven days.
Text: as §1

A value given as a limit tells only on which side of the number the result lay.

Consider “1-[[5-(10→9)abeo-9,10-didehydro-6-methylergolin-8β-yl]methyl]- 2,4-(1H,3H)-pyrimidinedione [FCE 24379]”, for which the “ED25 and limits (dose lowering mean blood pressure of 25 mmHg)” value in data set [1] was 1.229 (0.661-1.845) mg.kg^-1. Further, the LD50 in data set [2] is > 800 mg/kg.
Taken in the same sequence, the figures for “1-[[5-(10→9)abeo-9,10-didehydro-6-methylergolin-8β-yl]methyl]- 2,4-(1H,3H)-pyrimidinedione-N6 -oxide [FCE 24778]” were 0.402 (0.297-0.511) mg.kg^-1 and > 800 mg/kg.
Consider `C[C@H](CS)C(=O)N1CCC[C@H]1C(=O)O` [Captopril, captopril, reference compound], for which the ED (25 mmHg) in data set [1] (Rattus norvegicus, po, read-out: ED25 and limits (dose lowering mean blood pressure of 25 mmHg)) is 13.7 mg/kg. For the same molecule, the LD50 at 168 h in data set [3] was > 800 mg/kg.
Turning to `CN1C[C@H](CN2CC(=O)NC2=O)C2=Cc3cccc4[nH]cc(c34)C[C@H]21` [FCE 24378, 1-[[5(10→9)abeo-9,10-didehydro-6-methylergolin-8β-yl]methyl]-2,4-imidazolidinedione], the “ED25 and limits (dose lowering mean blood pressure of 25 mmHg)” value in data set [1] was 2.051 (1.180-2.971) mg.kg^-1. For the same molecule, the LD50 in data set [2] was > 800 mg/kg.
Consider `C[N+]1([O-])C[C@H](CN2CC(=O)NC2=O)C2=Cc3cccc4[nH]cc(c34)C[C@H]21` (stereo partly drawn) [FCE 25068, 1-[[5(10→9)abeo-9,10-didehydro-6-methylergolin-8β-yl]methyl]-2,4-imidazolidinedione-N6-oxide], for which, in data set [1], the “ED25 and limits (dose lowering mean blood pressure of 25 mmHg)” value is on record as 4.272 (3.256-5.514) mg.kg^-1. For the same molecule, in data set [2], the 50% lethal dose (LD50) was > 800 mg/kg.
